We go through 13 compounds from PubChem BioAssay (NCI).

Among the test systems are RPMI-8226 leukemia; HL-60(TB) leukemia; UACC-257 melanoma; SN12C renal; OVCAR-8 ovarian; SK-MEL-5 melanoma; MOLT-4 leukemia; HCC-2998 colon; LOX IMVI melanoma; SNB-75 CNS.
Holding throughout (experiment): NCI anticancer screen, dose series, 48 h

Structures are written as SMILES.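 Following 48 hours of exposure in 96-well plates, responses at five concentrations were used to interpolate endpoints linearly. GI50 marks 50% less growth. TGI marks complete inhibition of growth.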 A value given as a limit tells only on which side of the number the result lay.

Consider `Cc1cc(I)cc(CN(C)CCCN2CCCC2)c1O`, for which the GI50 is 15.6 µM in the assay on RPMI-8226 leukemia; 13.4 µM in the assay on HL-60(TB) leukemia; 22.7 µM with UACC-257 melanoma; 46.1 µM with SN12C renal; 45.3 µM with OVCAR-8 ovarian; 13.1 µM in the assay on SK-MEL-5 melanoma. Also, the GI50 in the assay with MOLT-4 leukemia was 16.1 µM; in the assay on HCC-2998 colon, 19.1 µM; with LOX IMVI melanoma, 15 µM; with SNB-75 CNS, 15.3 µM. The TGI in the assay with RPMI-8226 leukemia was 37.5 µM; with HL-60(TB) leukemia, 31.3 µM; in the assay on UACC-257 melanoma, more than 57 µM; in the assay with SN12C renal, more than 100 µM; in the assay on OVCAR-8 ovarian, more than 100 µM; in the assay on SK-MEL-5 melanoma it was 26 µM. Further, the TGI was found to be 39.1 µM with MOLT-4 leukemia, 35.6 µM in the assay on HCC-2998 colon, 30.6 µM in the assay with LOX IMVI melanoma and 35.6 µM in the assay on SNB-75 CNS.

Take `COC(=O)C1(C)Cc2cc(OC(C)=O)c(OC(C)=O)cc2N1` (stereo not given): the GI50 in the assay with RPMI-8226 leukemia was 1.87 µM; in the assay on HL-60(TB) leukemia, 2.42 µM; in the assay on UACC-257 melanoma, 1.68 µM; with SN12C renal, 17 µM; with OVCAR-8 ovarian, 14.4 µM; in the assay with SK-MEL-5 melanoma, 13.9 µM. The GI50 in the assay on MOLT-4 leukemia is 8.18 µM; in the assay on HCC-2998 colon, 17.8 µM; in the assay on LOX IMVI melanoma, 5.06 µM; in the assay on SNB-75 CNS, 26.3 µM. In addition, the TGI was 10.6 µM with RPMI-8226 leukemia; more than 24.2 µM in the assay with HL-60(TB) leukemia; 11.4 µM with UACC-257 melanoma; more than 81.8 µM with SN12C renal; 70.2 µM in the assay on OVCAR-8 ovarian; 27.8 µM in the assay with SK-MEL-5 melanoma. Also, the TGI in the assay on MOLT-4 leukemia was more than 60.2 µM; in the assay with HCC-2998 colon, 33 µM; in the assay on LOX IMVI melanoma, 19.7 µM; with SNB-75 CNS, more than 96.7 µM.

Regarding `O=S(=O)(NCCCNc1nccc(-c2c(-c3ccc(F)cc3)nc3sccn23)n1)c1ccc2ccccc2c1`, the GI50 was 4.05 µM in the assay on RPMI-8226 leukemia; 4.25 µM in the assay with HL-60(TB) leukemia; more than 100 µM with UACC-257 melanoma; 4.69 µM in the assay with SN12C renal; 4.63 µM with OVCAR-8 ovarian; 4.17 µM in the assay on SK-MEL-5 melanoma. The GI50 in the assay on MOLT-4 leukemia is 4.52 µM; with HCC-2998 colon, 3.37 µM; in the assay with LOX IMVI melanoma, 4.35 µM; with SNB-75 CNS, 5.22 µM. Besides, the TGI in the assay on RPMI-8226 leukemia, in the assay with HL-60(TB) leukemia, with UACC-257 melanoma, in the assay on SN12C renal, with OVCAR-8 ovarian and with SK-MEL-5 melanoma was more than 100 µM in each case. The TGI was more than 100 µM with MOLT-4 leukemia, 9.61 µM with HCC-2998 colon, more than 100 µM in the assay with LOX IMVI melanoma and more than 100 µM in the assay with SNB-75 CNS.

Turning to `CSC(=S)N/N=C/c1nccc2ccccc12`, the TGI in the assay on RPMI-8226 leukemia is 11.6 µM; with HL-60(TB) leukemia, 6.69 µM; with UACC-257 melanoma it was 15.5 µM; in the assay on SN12C renal it was 12.7 µM; in the assay on OVCAR-8 ovarian, 4.96 µM; in the assay with SK-MEL-5 melanoma, 2.66 µM. In addition, the TGI with MOLT-4 leukemia was found to be 3.65 µM; in the assay on HCC-2998 colon, 11.3 µM; with LOX IMVI melanoma, 13.1 µM; in the assay on SNB-75 CNS it was 14 µM.

With `O=C1CCCCN1CCCCC#Cc1cccc(C#Cc2cccnc2)c1`, the GI50 with RPMI-8226 leukemia is 4.64 µM; with HL-60(TB) leukemia, 16.2 µM; with UACC-257 melanoma it was 17.7 µM; in the assay on SN12C renal it was 14.1 µM; in the assay on OVCAR-8 ovarian it was 21.6 µM; in the assay with SK-MEL-5 melanoma, 14.3 µM. The GI50 in the assay on MOLT-4 leukemia was 73.1 µM; in the assay on HCC-2998 colon, 6.52 µM; with LOX IMVI melanoma, 8.55 µM; in the assay with SNB-75 CNS, 4.05 µM. Further, the TGI in the assay on RPMI-8226 leukemia stood at 28.7 µM; with HL-60(TB) leukemia, 70 µM; in the assay on UACC-257 melanoma it was 49.6 µM; with SN12C renal, 28.5 µM; in the assay with OVCAR-8 ovarian it was 67.9 µM; in the assay with SK-MEL-5 melanoma, 36.3 µM. In addition, the TGI is more than 100 µM in the assay on MOLT-4 leukemia, 23.1 µM with HCC-2998 colon, 25.9 µM with LOX IMVI melanoma and 20.4 µM with SNB-75 CNS.

Consider `CCN(C(=O)/C=C/c1ccco1)c1ccccc1`, for which the TGI in the assay with RPMI-8226 leukemia, in the assay on HL-60(TB) leukemia, in the assay on UACC-257 melanoma, in the assay on SN12C renal, with OVCAR-8 ovarian and in the assay with SK-MEL-5 melanoma was more than 100 µM each time. In addition, the TGI with MOLT-4 leukemia, with HCC-2998 colon, in the assay with LOX IMVI melanoma and in the assay on SNB-75 CNS was more than 100 µM throughout.

In the case of `CC(=O)N1CCC2(c3ccccc3N(C(C)=O)C2c2ccc(O)cc2)C1C(=O)O` (stereo not given), the TGI with RPMI-8226 leukemia, in the assay on HL-60(TB) leukemia, in the assay on UACC-257 melanoma, in the assay on SN12C renal, in the assay on OVCAR-8 ovarian and in the assay on SK-MEL-5 melanoma was more than 100 µM throughout. The TGI in the assay on MOLT-4 leukemia, with HCC-2998 colon, in the assay with LOX IMVI melanoma and in the assay on SNB-75 CNS was more than 100 µM each time.

Regarding `O=[N+]([O-])c1ccc(-c2ccc(-c3csc(Nc4ccccc4)n3)o2)cc1`, the TGI is more than 67.4 µM in the assay on RPMI-8226 leukemia; 13.5 µM in the assay on HL-60(TB) leukemia; 33.3 µM with UACC-257 melanoma; 33 µM in the assay with SN12C renal; 40.7 µM in the assay with OVCAR-8 ovarian; 40.1 µM in the assay with SK-MEL-5 melanoma. Also, the TGI was 46.2 µM with MOLT-4 leukemia, 56.5 µM with HCC-2998 colon, 34.8 µM in the assay with LOX IMVI melanoma and more than 56.8 µM in the assay on SNB-75 CNS.

Regarding `O=c1c2cc(Br)ccc2nc(CCl)n1-c1ccc(O)c([N+](=O)[O-])c1`, the TGI in the assay on RPMI-8226 leukemia is 47.8 µM; in the assay on HL-60(TB) leukemia, 49.5 µM; in the assay on UACC-257 melanoma, 48.2 µM; in the assay with SN12C renal it was 36 µM; with OVCAR-8 ovarian it was 42.2 µM; in the assay with SK-MEL-5 melanoma, 29.8 µM. Further, the TGI with MOLT-4 leukemia was 53.5 µM; in the assay with HCC-2998 colon, 34.1 µM; with LOX IMVI melanoma, 36.2 µM; in the assay with SNB-75 CNS, 44 µM.

Take `C=C1C(O)CC[C@]2(C)C1C1OC(C)(C)O[C@]13CC(=O)C(C)=C([C@H]1OC(C)(C)OC12)C3(C)C` (stereo not given in full): the TGI in the assay on RPMI-8226 leukemia, in the assay on HL-60(TB) leukemia, in the assay with UACC-257 melanoma, in the assay on SN12C renal, in the assay on OVCAR-8 ovarian and in the assay on SK-MEL-5 melanoma was more than 100 µM throughout. For the same compound, the TGI in the assay on MOLT-4 leukemia, with HCC-2998 colon, in the assay with LOX IMVI melanoma and in the assay with SNB-75 CNS was more than 100 µM each time.

Consider `CN(C)C(=O)O[C@H]1CN[C@H](C#Cc2cc3ncnc(Nc4ccc(OCc5cccc(F)c5)c(Cl)c4)c3s2)C1`, for which the GI50 was 4.63 µM in the assay on RPMI-8226 leukemia; 5.22 µM with HL-60(TB) leukemia; more than 25 µM in the assay with UACC-257 melanoma; 5.64 µM with SN12C renal; 7.58 µM in the assay with OVCAR-8 ovarian; 16 µM in the assay on SK-MEL-5 melanoma. The GI50 is 4.53 µM with MOLT-4 leukemia, 11.3 µM with HCC-2998 colon, more than 23.2 µM with LOX IMVI melanoma and 9.66 µM with SNB-75 CNS. The TGI with RPMI-8226 leukemia was 15.2 µM; in the assay on HL-60(TB) leukemia, 15 µM; in the assay with UACC-257 melanoma it was more than 25 µM; in the assay with SN12C renal it was more than 25 µM; with OVCAR-8 ovarian, more than 25 µM; in the assay with SK-MEL-5 melanoma it was more than 25 µM. The TGI in the assay on MOLT-4 leukemia, in the assay with HCC-2998 colon, with LOX IMVI melanoma and in the assay with SNB-75 CNS was more than 25 µM in each case.

Turning to `CC(=O)/C(=C/c1ccccc1F)C(=O)c1ccccc1`, the TGI in the assay with RPMI-8226 leukemia was 44.4 µM; with HL-60(TB) leukemia it was more than 100 µM; in the assay with UACC-257 melanoma, 91.3 µM; in the assay on SN12C renal, more than 100 µM; in the assay with OVCAR-8 ovarian, 51 µM; with SK-MEL-5 melanoma, more than 100 µM. The TGI in the assay on MOLT-4 leukemia is 7.14 µM; in the assay on HCC-2998 colon, 45.1 µM; in the assay on LOX IMVI melanoma it was 40.8 µM; in the assay with SNB-75 CNS it was more than 100 µM.

As to `O=c1oc2ccc(I)cc2c(=O)n1-c1ccc(Cl)cc1F`, the GI50 in the assay with RPMI-8226 leukemia is 0.758 µM; with HL-60(TB) leukemia, 1.37 µM; with UACC-257 melanoma, 0.526 µM; in the assay on SN12C renal it was 0.8 µM; in the assay with OVCAR-8 ovarian, 1.66 µM; in the assay on SK-MEL-5 melanoma it was 0.751 µM. Also, the GI50 with MOLT-4 leukemia is 2.24 µM; in the assay with HCC-2998 colon, 3.18 µM; with LOX IMVI melanoma, 1.33 µM; with SNB-75 CNS, 0.5 µM. Moreover, the TGI with RPMI-8226 leukemia was found to be 6.12 µM; with HL-60(TB) leukemia, 7.51 µM; with UACC-257 melanoma, 6.45 µM; in the assay with SN12C renal, 8.77 µM; with OVCAR-8 ovarian, 24.9 µM; in the assay with SK-MEL-5 melanoma, 2.19 µM. The TGI is 6.81 µM in the assay on MOLT-4 leukemia, 12.9 µM with HCC-2998 colon, 11.4 µM in the assay with LOX IMVI melanoma and 2.97 µM in the assay on SNB-75 CNS.
